Tests used:
Conditions in all cases: 72 h
[1] = system: Caco-2; experiment: cell viability relative to DMSO; higher = less toxic
[2] = system: HepG2; experiment: as above
[3] = system: Vero E6; experiment: as above
[4] = system: U2OS; experiment: as above
[5] = system: Calu-3; experiment: as above
[6] = system: Caco-2; experiment: relative viability EC50 (midpoint between 100% and the lowest measured viability); higher = less toxic
[7] = system: HepG2; experiment: as above
[8] = system: Vero E6; experiment: as above
[9] = system: U2OS; experiment: as above
[10] = system: Caco-2; experiment: drug sensitivity score (DSS) for viability; higher = more toxic; extreme values may be limits of the assay
[11] = system: HepG2; experiment: as above
[12] = system: Vero E6; experiment: as above
[13] = system: U2OS; experiment: as above
[14] = system: Calu-3; experiment: as above
[15] = system: Calu-3; experiment: relative viability EC50 (midpoint between 100% and the lowest measured viability); higher = less toxic

| Compound | cell viability ([1]; 1 nM) [%] | cell viability ([1]; 10 nM) [%] | cell viability ([1]; 100 nM) [%] | cell viability ([1]; 1000 nM) [%] | cell viability ([1]; 10000 nM) [%] | cell viability ([2]; 1 nM) [%] | cell viability ([2]; 10 nM) [%] | cell viability ([2]; 100 nM) [%] | cell viability ([2]; 1000 nM) [%] | cell viability ([2]; 10000 nM) [%] | cell viability ([3]; 1 nM) [%] | cell viability ([3]; 10 nM) [%] | cell viability ([3]; 100 nM) [%] | cell viability ([3]; 1000 nM) [%] | cell viability ([3]; 10000 nM) [%] | cell viability ([4]; 1 nM) [%] | cell viability ([4]; 10 nM) [%] | cell viability ([4]; 100 nM) [%] | cell viability ([4]; 1000 nM) [%] | cell viability ([4]; 10000 nM) [%] | cell viability ([5]; 1 nM) [%] | cell viability ([5]; 10 nM) [%] | cell viability ([5]; 100 nM) [%] | cell viability ([5]; 1000 nM) [%] | cell viability ([5]; 10000 nM) [%] | relative viability EC50 [6] [µM] | relative viability EC50 [7] [µM] | relative viability EC50 [8] [µM] | relative viability EC50 [9] [µM] | drug sensitivity score [10] | drug sensitivity score [11] | drug sensitivity score [12] | drug sensitivity score [13] | drug sensitivity score [14] | relative viability EC50 [15] [µM] |
| --- | --- | --- | --- | --- | --- | --- | --- | --- | --- | --- | --- | --- | --- | --- | --- | --- | --- | --- | --- | --- | --- | --- | --- | --- | --- | --- | --- | --- | --- | --- | --- | --- | --- | --- | --- |
| Oc1ccc2ccccc2c1Cc1c(O)ccc2ccccc12 [ST-1859] | 90.3 | 92.6 | 97.5 | 101 | 75.8 | 103 | 102 | 93.9 | 90.7 | 86.9 | 98.3 | 104 | 102 | 93 | 95.2 | 95.1 | 101 | 98.2 | 104 | 96.5 | 87.4 | 94.8 | 91.9 | 93.9 | 64.6 | > 10 | > 10 | > 10 | > 10 | 0.8 | 0.5 | 0 | 0 | 2.7 | – |
| Nc1nnc(Sc2ncc([N+](=O)[O-])s2)s1 [SU3327] | 105 | 104 | 103 | 94.2 | 8.8 | 100 | 104 | 96.1 | 76.2 | 0 | 101 | 101 | 98.8 | 95.6 | 1.4 | 103 | 92.7 | 98 | 93.4 | 0.1 | 99.7 | 104 | 99.2 | 100 | 62.7 | 2.66 | 1.59 | 2.83 | 2.64 | 5.9 | 9.2 | 6.1 | 6.5 | 1.8 | – |
| C=CC(=O)Nc1cccc(Oc2nc(Nc3ccc(N4CCN(C)CC4)cc3OC)ncc2Cl)c1 [WZ-4002] | 101 | 95.9 | 94.9 | 94.4 | 83.7 | 98.1 | 101 | 101 | 104 | 109 | 98.6 | 102 | 103 | 88.4 | 78.1 | 94.5 | 101 | 98.9 | 99.3 | 93.5 | 94.4 | 97 | 90.8 | 88.6 | 56.9 | > 10 | > 10 | > 10 | > 10 | 0.3 | 0 | 2 | 0 | 3.5 | – |
| Cc1cc(C)c(NC(=O)N(Cc2ccc3c(c2)Cc2ccccc2-3)C2CCCCCC2)c(C)c1 [YM-750] | 98.6 | 100 | 96.6 | 100 | 55 | 96.2 | 93.5 | 103 | 92.9 | 59.8 | 96.9 | 98.1 | 91.9 | 101 | 88.3 | 97.8 | 99.8 | 94.8 | 94.6 | 79.9 | 94.1 | 95.3 | 84.9 | 85.6 | 83.3 | – | – | > 10 | > 10 | 2.3 | 3.2 | 0 | 1 | 2.4 | > 10 |
| CC(C[N+](C)(C)C)OC(N)=O (stereo unspecified) [bethanechol] | 121 | 111 | 118 | 97.4 | 104 | 97.1 | 104 | 92.1 | 106 | 106 | 99.3 | 91.8 | 103 | 86.8 | 98.2 | 100 | 98.8 | 98.3 | 95.5 | 95.7 | – | – | – | – | – | > 10 | > 10 | > 10 | > 10 | 0 | 0 | 0 | 0 | – | – |
| C[C@@H]1CCC[C@H](C)N1NC(=O)c1ccc(Cl)c(S(N)(=O)=O)c1 [clopamide] | 94.5 | 104 | 110 | 105 | 104 | – | – | – | – | – | 99.4 | 102 | 104 | 99.4 | 105 | – | – | – | – | – | 102 | 106 | 104 | 104 | 95.1 | > 10 | – | > 10 | – | 0 | – | 0 | – | 0 | > 10 |
| Cc1onc(-c2ccccc2Cl)c1C(=O)N[C@@H]1C(=O)N2[C@@H]1SC(C)(C)[C@@H]2C(=O)O [cloxacillin] | 102 | 99.7 | 98.5 | 109 | 95.8 | 107 | 116 | 104 | 90.8 | 109 | 94.5 | 97.6 | 99.7 | 98.2 | 106 | – | – | – | – | – | – | – | – | – | – | > 10 | > 10 | > 10 | – | 0 | 0 | 0 | – | – | – |
| CN1[C@@H]2CC[C@H]1C[C@@H](OC1c3ccccc3CCc3ccccc31)C2 [deptropine] | 92.1 | 97.5 | 96.3 | 92.5 | 83.4 | 102 | 96.3 | 102 | 98.6 | 76.7 | 96.4 | 93.8 | 98.8 | 93.8 | 77.3 | 101 | 106 | 99.9 | 103 | 93 | 98.8 | 107 | 108 | 97.8 | 72.8 | > 10 | > 10 | > 10 | > 10 | 0.3 | 1 | 1.6 | 0 | 1.4 | – |
| CC[C@H](c1ccc(O)cc1)[C@@H](CC)c1ccc(O)cc1 [hexestrol] | 104 | 97.4 | 98.2 | 95 | 101 | 92.7 | 96.2 | 93.2 | 109 | 116 | 94 | 100 | 92.2 | 99 | 108 | 97.4 | 95.2 | 96.7 | 95.7 | 100 | – | – | – | – | – | > 10 | > 10 | > 10 | > 10 | 0 | 0 | 0 | 0 | – | – |
| N#Cc1ccc(C(c2ccc(C#N)cc2)n2cncn2)cc1 [letrozole] | 106 | 107 | 96.2 | 105 | 97.3 | – | – | – | – | – | 106 | 106 | 114 | 99.9 | 105 | 104 | 105 | 99.6 | 107 | 101 | 97.1 | 101 | 101 | 99.1 | 99 | > 10 | – | > 10 | > 10 | 0 | – | 0 | 0 | 0 | > 10 |
| Cc1ccsc1/C=C/C1=NCCCN1C [morantel] | 94.6 | 86 | 72.7 | 94.6 | 84.2 | – | – | – | – | – | 108 | 104 | 110 | 101 | 96.8 | 98.2 | 104 | 97.2 | 100 | 96.9 | 94.5 | 111 | 91.1 | 101 | 96.9 | > 10 | – | > 10 | > 10 | 0 | – | 0 | 0 | 0 | > 10 |
| Cc1ncc([N+](=O)[O-])n1CC(O)CN1CCOCC1 (stereo unspecified) [morinidazole] | 103 | 92 | 100 | 109 | 102 | 96.3 | 108 | 94.2 | 96.6 | 102 | 99.7 | 97.1 | 96.3 | 96.7 | 101 | 101 | 95.1 | 106 | 104 | 101 | – | – | – | – | – | > 10 | > 10 | > 10 | > 10 | 0 | 0 | 0 | 0 | – | – |
| CC(C)(Sc1cc(C(C)(C)C)c(O)c(C(C)(C)C)c1)Sc1cc(C(C)(C)C)c(O)c(C(C)(C)C)c1 [probucol] | 104 | 96.3 | 106 | 102 | 102 | – | – | – | – | – | 100 | 101 | 106 | 98.1 | 97.8 | 104 | 96.1 | 101 | 96.2 | 98.7 | 98.6 | 106 | 99.9 | 103 | 96 | > 10 | – | > 10 | > 10 | 0 | – | 0 | 0 | 0 | > 10 |
| C[C@@H](c1nc(-c2ccc(C#N)cc2)cs1)[C@](O)(Cn1cncn1)c1ccc(F)cc1F [ravuconazole] | 106 | 103 | 99.3 | 84 | 59.3 | 97.1 | 99.3 | 84.8 | 99.9 | 49.1 | 96.3 | 95.9 | 101 | 102 | 98.6 | 101 | 105 | 95.9 | 100 | 85.9 | – | – | – | – | – | – | 3.14 | > 10 | > 10 | 4.2 | 2.7 | 0 | 0.2 | – | – |
| O=C(O)C(O)Cc1ccc(O)c(O)c1 (stereo unspecified) [sodium-danshensu] | – | – | – | – | – | 99.5 | 121 | 99.8 | 92 | 104 | 101 | 102 | 103 | 95.7 | 97.6 | 95 | 96.2 | 96.3 | 94.8 | 87.7 | – | – | – | – | – | – | > 10 | > 10 | > 10 | – | 0 | 0 | 0 | – | – |
| C#CC1(OCC(O)CN2CCN(c3cccc(C(F)(F)F)c3)CC2)CCCCC1 (stereo unspecified) [terciprazine] | 102 | 92.2 | 101 | 86.1 | 87 | 96 | 110 | 110 | 91.1 | 90.9 | 106 | 93.6 | 104 | 99.4 | 87 | 100 | 98.6 | 99 | 96.8 | 95 | – | – | – | – | – | > 10 | > 10 | > 10 | > 10 | 1 | 0 | 0.1 | 0 | – | – |
| Cc1cccc(Nc2ccncc2S(=O)(=O)NC(=O)NC(C)C)c1 [torasemide] | 102 | 112 | 96.7 | 103 | 96.2 | – | – | – | – | – | 105 | 101 | 102 | 99.2 | 103 | – | – | – | – | – | 100 | 100 | 96.5 | 110 | 85.6 | > 10 | – | > 10 | – | 0 | – | 0 | – | 0.1 | > 10 |

Source: the supplement of paper PMC13380429
